{"source": "patent US20050203191A1", "about": "“1-Aminocyclohexane derivatives for the treatment of agitation and other behavioral disorders, especially those associated with alzheimer's disease” (priority 2004, published 2005)", "tested_on": "moderate to severe Alzheimer's patients treated with ongoing donepezil therapy", "test": "MD-02 (Therapy Example 2): 24-week double-blind placebo-controlled trial of memantine added to ongoing donepezil", "type": "in vivo, human", "details": "MD-02, on donepezil, week 24, ITT LOCF", "method": "A 24 week, double-blind, placebo-controlled trial was conducted in moderate to severe Alzheimer's patients (N=404) treated with ongoing donepezil therapy and randomized to memantine or placebo. Behavioral symptoms were assessed using the NPI administered at baseline, Week 12 and the final visit (Week 24). The trial already had established benefits of memantine on functional, cognitive, and global measures. The statistical analysis was based on the ITT population using the last observation carried forward (LOCF) and observed case (OC) approaches.\nThis study enrolled four hundred and four patients diagnosed with probable AD according to the National Institute of Neurological and Communicative Disorders and Stroke—Alzheimer's Disease and Related Disorders Association (NINCDS-ADRDA) criteria with moderate to severe stages of illness. Inclusion criteria were as follows: Mini-Mental State Examination (MMSE) score of 5-14 at screening and at baseline; minimum age of 50 years; a recent MRI or CT scan consistent with a diagnosis of probable AD; on AChEI therapy, which was defined by the protocol to be donepezil, for more than 6 months prior to entrance into the trial and at a stable dose (5-10 mg/day) for at least 3 months prior to entrance in the trial; a knowledgeable and reliable caregiver to accompany the patient to research visits and oversee the administration of the investigational agent during the trial; residence in the community; ambulatory or ambulatory-aided (i.e. walker or cane) ability; and stable medical condition.\nPatients were excluded for clinically significant reasons; B12 or folate deficiency; active pulmonary, gastrointestinal, renal, hepatic, endocrine, or cardiovascular disease; other psychiatric or central nervous system disorders; CT or MRI evidence of clinically significant central nervous system disorders other than probable AD; dementia complicated by other organic disease; or a modified Hachinski Ischemia Score30 greater than 4 at screening.\nThis was a prospective, randomized, placebo-controlled, parallel-arm, fixed-dose trial in which participants were assigned to double-blind treatment for 24 weeks with a 1-2 week single-blind, placebo lead-in phase prior to randomization. The initial dose of memantine was 5 mg/day with escalation to 20 mg/day over the first 3 weeks of double-blind treatment. All patients were to maintain their protocol-defined AChEI therapy at entry dose for the duration of the study. From week 3 to the end of week 8 of double-blind treatment, transient dosage adjustments for memantine treatment were permitted for patients experiencing dose-limiting adverse events. All memantine-treated patients were required to receive the target dose of 20 mg/day by the end of week 8, and patients not tolerating the target dose at that time were discontinued.\nPatients were randomly allocated in permuted blocks of four to one of the two treatment. Blinded study medication was supplied to each study site for dispensation in blister packs at each visit. No unblinding occurred during the trial. Compliance monitoring was conducted via pill counts, and over 95% of both treatment groups had >75% compliance (95% for the placebo/AChEI treatment group and 96.5% for the memantine/AChEI treatment group).\nCognitive, functional, global, and behavioral outcome measures were obtained at screening, baseline, and at the end of weeks 4, 8, 12, 18, and 24. […] The efficacy parameters were the change from baseline on the SIB, a modified ADCS-ADL Inventory score at week 24, and the NPI. The 12-item version of the NPI was used here, with a total score ranging from 0-144. Higher scores reflect greater symptomatology. The NPI was assessed at baseline, at the end of week 12, and at the final visit.\nThree populations were considered in the statistical analyses. […]", "key": {"[1]": {"details": "NPI total score ≧=75% (top quartile)"}, "[2]": {"details": "antipsychotics usage “YES” (N = n)"}, "[3]": {"details": "antipsychotics usage “YES” (N = y)"}, "[4]": {"details": "baseline NPI agitation score <4"}, "[5]": {"details": "baseline NPI agitation score ≧=4"}}, "data": [{"smiles": "CC12CC3CC(C)(C1)CC(N)(C3)C2", "note": "[memantine, 1-amino-3,5-dimethyl adamantane]", "values": [{"measurement": "ADCS-ADL (change) LS Mean Diff., MEM v. PLA", "setting": "NPI total score <75%", "value": 1.17}, {"measurement": "ADCS-ADL (change) mean", "setting": "NPI total score <75%", "value": "−1.6"}, {"measurement": "CIBIC-PLUS Raw Mean Diff., MEM v. PLA", "setting": "NPI total score <75%", "value": "−0.2"}, {"measurement": "CIBIC-PLUS mean", "setting": "NPI total score <75%", "value": 4.4}, {"measurement": "SIB (change) LS Mean Diff., MEM v. PLA", "setting": "NPI total score <75%", "value": 2.5}, {"measurement": "SIB (change) mean", "setting": "NPI total score <75%", "value": 0.9}, {"measurement": "ADCS-ADL (change) LS Mean Diff., MEM v. PLA", "setting": "[1]", "value": 1.73}, {"measurement": "ADCS-ADL (change) mean", "setting": "[1]", "value": "−2.6"}, {"measurement": "CIBIC-PLUS Raw Mean Diff., MEM v. PLA", "setting": "[1]", "value": "−0.3"}, {"measurement": "CIBIC-PLUS mean", "setting": "[1]", "value": 4.4}, {"measurement": "SIB (change) LS Mean Diff., MEM v. PLA", "setting": "[1]", "value": 6.1}, {"measurement": "SIB (change) mean", "setting": "[1]", "value": "−1.4"}, {"measurement": "ADCS-ADL (change) LS Mean Diff., MEM v. PLA", "setting": "NPI total score ≧=75% (top quartile), listed as MEM", "value": "−1.73"}, {"measurement": "ADCS-ADL (change) LS Mean Diff., MEM v. PLA", "setting": "[2]", "value": 0.9}, {"measurement": "ADCS-ADL (change) mean", "setting": "[2]", "value": "−1.8"}, {"measurement": "CIBIC-PLUS Raw Mean Diff., MEM v. PLA", "setting": "[2]", "value": "−0.08"}, {"measurement": "CIBIC-PLUS mean", "setting": "[2]", "value": 4.45}, {"measurement": "SIB (change) LS Mean Diff., MEM v. PLA", "setting": "[2]", "value": 1.7}, {"measurement": "SIB (change) mean", "setting": "[2]", "value": 0.3}, {"measurement": "ADCS-ADL (change) LS Mean Diff., MEM v. PLA", "setting": "[3]", "value": 3.6}, {"measurement": "ADCS-ADL (change) mean", "setting": "[3]", "value": "−2.1"}, {"measurement": "CIBIC-PLUS Raw Mean Diff., MEM v. PLA", "setting": "[3]", "value": "−1.18"}, {"measurement": "CIBIC-PLUS mean", "setting": "[3]", "value": 4.17}, {"measurement": "SIB (change) LS Mean Diff., MEM v. PLA", "setting": "[3]", "value": 12.4}, {"measurement": "SIB (change) mean", "setting": "[3]", "value": 5.2}, {"measurement": "ADCS-ADL (change) LS Mean Diff., MEM v. PLA", "setting": "[4]", "value": 1.2}, {"measurement": "ADCS-ADL (change) mean", "setting": "[4]", "value": "−1.8"}, {"measurement": "CIBIC-PLUS Raw Mean Diff., MEM v. PLA", "setting": "[4]", "value": "−0.3"}, {"measurement": "CIBIC-PLUS mean", "setting": "[4]", "value": 4.4}, {"measurement": "SIB (change) LS Mean Diff., MEM v. PLA", "setting": "[4]", "value": 3.6}, {"measurement": "SIB (change) mean", "setting": "[4]", "value": 1.0}, {"measurement": "SIB (change) LS Mean Diff., MEM v. PLA", "setting": "baseline NPI agitation score <4, listed as MEM", "value": 3.4}, {"measurement": "ADCS-ADL (change) LS Mean Diff., MEM v. PLA", "setting": "[5]", "value": 2.1}, {"measurement": "ADCS-ADL (change) mean", "setting": "[5]", "value": "−2.0"}, {"measurement": "CIBIC-PLUS Raw Mean Diff., MEM v. PLA", "setting": "[5]", "value": "−0.1"}, {"measurement": "SIB (change) LS Mean Diff., MEM v. PLA", "setting": "[5]", "value": 3.8}, {"measurement": "SIB (change) mean", "setting": "[5]", "value": 1.1}, {"measurement": "ADCS-ADL (change) LS mean", "setting": "overall", "value": "−2.00"}, {"measurement": "CIBIC-PLUS LS mean", "setting": "overall", "value": 4.41}, {"measurement": "SIB (change) LS mean", "setting": "overall", "value": 0.90}, {"measurement": "ADCS-ADL (change) LS Mean Diff., MEM v. PLA", "setting": "overall, listed as MEM", "value": "−1.40"}, {"measurement": "CIBIC-PLUS Raw Mean Diff., MEM v. PLA", "setting": "overall, listed as MEM", "value": "−0.25"}, {"measurement": "SIB (change) LS Mean Diff., MEM v. PLA", "setting": "overall, listed as MEM", "value": "−3.40"}]}]}
